Consider three compounds from US20210299044A1, “SYSTEMS AND METHODS FOR DELIVERY OF DRUGS AND OTHER SUBSTANCES COMPRISING DEEP EUTECTIC SOLVENTS” (Novilla Pharmaceuticals, Inc., priority 2018, published 2021).

Each structure is given as a SMILES string.

For data set [1] the following is noted: values stated in description, no method given; cited from earlier work.
Data set [2] in a line: Hydrolysis of aspirin in choline chloride/urea deep eutectic solvent, determined using HPLC. Type of data set: physicochemical. The method, then:
In this example, an aspirin formulation was prepared using choline chloride and urea. In this example, choline chloride was heated in an oven at 65° C. for 10 hours. Then, 1 part choline chloride (by volume) was added to 2 parts urea in a beaker. The beaker was sealed with parafilm and the choline chloride and urea allowed to mix to form a deep eutectic solvent (DES). Next, the mixture was passed through a 4A 8-12 mesh molecular sieve, and stirred overnight, to form anhydrous DES.
50 mg/ml of aspirin was then added to the DES. […] The hydrolysis was determined using HPLC.
It is believed that heating the choline chloride removes water.

`CN[C@@H]1CCc2[nH]c3ccc(C(N)=O)cc3c2C1` [frovatriptan]: the pKa in data set [1] is given as 17.27. In the case of `CC(=O)Oc1ccccc1C(=O)O` [aspirin, acetylsalicylic acid], in data set [2] (50 mg/ml aspirin in anhydrous DES (1 part choline chloride : 2 parts urea by volume), choline chloride heated at 65° C. for 10 hours, molecular sieve, HPLC), the “aspirin found to have hydrolyzed” value was found to be 1%. In data set [2] (comparison: choline chloride and urea mixed without heating the choline chloride, same procedure otherwise), the “aspirin found to hydrolyze” value is recorded as “over 8%”. Consider `CN(C)CCc1c[nH]c2ccc(CS(=O)(=O)N3CCCC3)cc12` [almotriptan], for which, in data set [1], the pKa is reported as 8.77.
